Target: lysine residues on bovine serum albumin (Bos taurus, UniProt P02769)
Experiment: Protein crosslinking method (reactivity with lysine residues)
Type: biochemical
Conditions: 30 mM working concentration, 70° C., BSA 10 mg/mL; among standard reference materials
Experimental: Selected active carbonyl compounds (glycolaldehyde, glyoxal, methyl glyoxal, and other carbonyls) were compared for their protein crosslinking capability. Standard reference materials were purchased from Sigma Aldrich [Glycolaldehyde (material no. G6805-5G, batch no. STBG0623V), Glyoxal (material no. 128465-500G, batch no. STBH8032), Methylglyoxal (material no. M0252-250 ml, batch no. BCBT1161), and other carbonyl (material no. F8775-500 ml, batch no. MKCK0272)]. Glutaraldehyde used as a reference material. The protein crosslinking capability was measured as their reactivity with lysine residues on bovine serum albumin (FIG. 6). In the Protein Crosslinking method, experiments were conducted at 30 mM working concentration of individual carbonyls and at 70° C.
Two IsoFin Products were made using two different types of natural liquid smoke flavors (CS9 and MA45GF) and were compared for total carbonyls and protein crosslinking capability. Among the two, the IsoFin B (CS9 based) was made with 50% CS9 (lot #0218938702, Zesti Smoke, Kerry America Region, Monterey, Tenn.) and 50% Homestyle vinegar flavor (IsoAge Technologies, Springfield, Mo.), whereas the IsoFin B (MA45GF based) was made with 9% MA45GF (lot #0214042186, Red Arrow, Kerry America Region, Manitowoc, Wis.)), 1% 300 grain vinegar (lot #09918209), and 90% Homestyle vinegar flavor. […]

Chain of lysine residues on bovine serum albumin (P02769 25-607): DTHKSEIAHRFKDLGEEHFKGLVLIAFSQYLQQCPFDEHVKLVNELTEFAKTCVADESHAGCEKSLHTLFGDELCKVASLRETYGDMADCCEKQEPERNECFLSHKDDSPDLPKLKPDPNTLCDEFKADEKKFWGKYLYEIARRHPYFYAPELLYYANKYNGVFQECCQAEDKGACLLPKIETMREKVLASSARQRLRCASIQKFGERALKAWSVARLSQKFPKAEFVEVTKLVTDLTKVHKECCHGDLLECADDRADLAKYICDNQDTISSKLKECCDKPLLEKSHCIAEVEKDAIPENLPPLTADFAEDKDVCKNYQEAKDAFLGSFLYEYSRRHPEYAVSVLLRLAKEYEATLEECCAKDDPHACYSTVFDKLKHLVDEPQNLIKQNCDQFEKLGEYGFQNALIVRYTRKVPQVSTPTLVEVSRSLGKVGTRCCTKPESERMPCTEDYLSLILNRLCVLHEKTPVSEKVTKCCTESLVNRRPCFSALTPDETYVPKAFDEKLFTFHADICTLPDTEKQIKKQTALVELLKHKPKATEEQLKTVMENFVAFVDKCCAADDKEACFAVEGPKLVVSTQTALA

## O=CCO [glycolaldehyde, Glycolaldehyde]
  reactivity with lysine (protein crosslinking capability): maximum reactivity with lysine
